Patent US10716821B2, “Use of plant extracts against herpes simplex virus” (UNIVERSITÉ DU QUÉBEC À CHICOUTIMI, priority 2013, dated 2020)

Test system: HSV-1
Experiment: HSV-1 plaque reduction, method D: replication period
Format: cell-based, herpes simplex virus type-1
Protocol: Plaque assays were performed with monolayer cultures of Vero cells in 24-well culture plates. For plaque reduction assay, cell monolayer was infected with virus (30 pfu/well) and incubated at 37° C. with 5% CO2 for one hour. The infected cell monolayer was then washed with PBS and overlaid with overlapping solution (maintenance medium containing 1% methylcellulose and various concentrations of indicated compounds). After 72 h of incubation at 37° C., cell monolayer was fixed with 5% paraformaldehyde and stained with 0.8% crystal violet. Plaques were counted and the percentage of inhibition was calculated as [(Pc−Pe)/Pc]100, where Pc and Pe refer to the plaque number in the absence and presence of the compound, respectively. The minimal concentration of compounds required to reduce 50% of plaque numbers (IC50) was also calculated. Cells and viruses (HSV-1) were incubated with acyclovir and various extracts at different stages during the viral infection cycle in order to determine the antiviral action mode (Koch et al., 2008). (A) For virus pretreatment assay, the virus suspension was incubated in a medium containing different concentrations of the extracts for one hour at 37° C. prior to infection of Vero cells. […] The antiviral activity of non-cytotoxic plant extracts was determined against HSV-1 in vitro. […] Then, the cells were washed and quantified using resazurin.

Nc1nc2c(ncn2COCCO)c(=O)[nH]1 [Acyclovir]
inhibition at 100 µg/mL (Human alphaherpesvirus 1, 72 h, at 100 μg/ml, replication period (extracts added after infection, stay 3 days on cells), Vero cells, read-out: Inhibitory percentage of lysis plaques, D): 100% | Protection of VERO cells against infection (positive control) (dose of 0.75 μg/ml): protects VERO cells against infection
